# Assay results taken from the supplement of paper PMC10307832.
# Experiments:
# Assay in all cases: relative viability (nuclei count vs DMSO), 5 days (fraction); higher = more cells survive
# [1] = test system: NCI-H441
# In short: (§1)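 Lung cancer cell lines in 1536-well plates were dosed by pin tool the day after seeding, either with one drug alone or with a fixed anchor-drug dose plus five library-drug doses (not always all listed) in √10 steps. After 5 days, cells were fixed and their nuclei stained in one step (final 0.05% Triton X-100, 1% formaldehyde, 1 ug/ml Hoechst), then counted on 4× images. Relative viability is the nuclei count in treated wells divided by that in vehicle wells. Values are medians of duplicate plates.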
# [2] = test system: NCI-H1650
# In short: as §1
# [3] = test system: NCI-H2023
# In short: as §1
# [4] = test system: NCI-H1915
# In short: as §1
# [5] = test system: LCLC-97TM1
# In short: as §1
# [6] = test system: NCI-H727
# In short: as §1
# [7] = test system: H3255
# In short: as §1
# [8] = test system: NCI-H520
# In short: as §1
# [9] = test system: NCI-H596
# In short: as §1
# [10] = test system: NCI-H1792
# In short: as §1
# [11] = test system: NCI-H650
# In short: as §1
# [12] = test system: ABC-1
# In short: as §1
# [13] = test system: NCI-H1944
# In short: as §1
# [14] = test system: NCI-H1651
# In short: as §1
# [15] = test system: HCC-15
# In short: as §1
# [16] = test system: NCI-H661
# In short: as §1
# [17] = test system: BEN
# In short: as §1
# [18] = test system: A-427
# In short: as §1
# [19] = test system: CAL-12T
# In short: as §1
# [20] = test system: LC-2-ad
# In short: as §1
# [21] = test system: NCI-H2087
# In short: as §1
# [22] = test system: NCI-H460
# In short: as §1
# [23] = test system: PC-3 [JPC-3]
# In short: as §1
# [24] = test system: 201T
# In short: as §1
compound,measurement,setting,value
C[C@@H]1CN(CC(=O)Nc2ccc3c(c2)Cc2cccc(-c4cc(=O)cc(N5CCOCC5)o4)c2S3)C[C@H](C)O1 + N=C(N)NC(=N)NCCc1ccccc1 [Phenformin] (partner 250 µM),relative viability,[1]; first compound 0.04 µM,0.913
same,relative viability,[1]; first compound 0.1265 µM,0.897
same,relative viability,[1]; first compound 0.4 µM,0.682
same,relative viability,[1]; first compound 4 µM,0.722
same,relative viability,[2]; first compound 0.04 µM,0.406
same,relative viability,[2]; first compound 0.1265 µM,0.431
same,relative viability,[2]; first compound 0.4 µM,0.37
same,relative viability,[2]; first compound 4 µM,0.347
same,relative viability,[3]; first compound 0.04 µM,0.458
same,relative viability,[3]; first compound 0.1265 µM,0.432
same,relative viability,[3]; first compound 0.4 µM,0.385
same,relative viability,[3]; first compound 4 µM,0.344
same,relative viability,[4]; first compound 0.04 µM,0.379
same,relative viability,[4]; first compound 0.1265 µM,0.388
same,relative viability,[4]; first compound 0.4 µM,0.382
same,relative viability,[4]; first compound 4 µM,0.362
same,relative viability,[5]; first compound 0.04 µM,0.354
same,relative viability,[5]; first compound 0.1265 µM,0.469
same,relative viability,[5]; first compound 0.4 µM,0.433
same,relative viability,[5]; first compound 4 µM,0.483
same,relative viability,[6]; first compound 0.04 µM,0.626
same,relative viability,[6]; first compound 0.1265 µM,0.663
same,relative viability,[6]; first compound 0.4 µM,0.599
same,relative viability,[6]; first compound 4 µM,0.544
same,relative viability,[7]; first compound 0.04 µM,0.388
same,relative viability,[7]; first compound 0.1265 µM,0.364
same,relative viability,[7]; first compound 0.4 µM,0.319
same,relative viability,[7]; first compound 4 µM,0.367
same,relative viability,[8]; first compound 0.04 µM,0.464
same,relative viability,[8]; first compound 0.1265 µM,0.732
same,relative viability,[8]; first compound 0.4 µM,0.312
same,relative viability,[8]; first compound 4 µM,0.452
same,relative viability,[9]; first compound 0.04 µM,0.792
same,relative viability,[9]; first compound 0.1265 µM,0.658
same,relative viability,[9]; first compound 0.4 µM,0.635
same,relative viability,[9]; first compound 4 µM,0.757
same,relative viability,[10]; first compound 0.04 µM,0.35
same,relative viability,[10]; first compound 0.4 µM,0.303
same,relative viability,[10]; first compound 4 µM,0.526
same,relative viability,[11]; first compound 0.04 µM,0.417
same,relative viability,[11]; first compound 0.1265 µM,0.436
same,relative viability,[11]; first compound 0.4 µM,0.436
same,relative viability,[11]; first compound 4 µM,0.33
same,relative viability,[12]; first compound 0.1265 µM,0.256
same,relative viability,[12]; first compound 0.4 µM,0.273
same,relative viability,[12]; first compound 4 µM,0.236
same,relative viability,[13]; first compound 0.04 µM,0.191
same,relative viability,[13]; first compound 0.1265 µM,0.214
same,relative viability,[13]; first compound 0.4 µM,0.23
same,relative viability,[13]; first compound 4 µM,0.215
same,relative viability,[14]; first compound 0.04 µM,0.334
same,relative viability,[14]; first compound 0.1265 µM,0.321
same,relative viability,[14]; first compound 0.4 µM,0.36
same,relative viability,[14]; first compound 4 µM,0.313
same,relative viability,[15]; first compound 0.04 µM,0.479
same,relative viability,[15]; first compound 0.1265 µM,0.437
same,relative viability,[15]; first compound 0.4 µM,0.401
same,relative viability,[15]; first compound 4 µM,0.363
same,relative viability,[16]; first compound 0.04 µM,0.261
same,relative viability,[16]; first compound 0.1265 µM,0.274
same,relative viability,[16]; first compound 0.4 µM,0.262
same,relative viability,[16]; first compound 4 µM,0.317
same,relative viability,[17]; first compound 0.04 µM,0.254
same,relative viability,[17]; first compound 0.1265 µM,0.261
same,relative viability,[17]; first compound 0.4 µM,0.294
same,relative viability,[17]; first compound 4 µM,0.264
same,relative viability,[18]; first compound 0.04 µM,0.298
same,relative viability,[18]; first compound 0.1265 µM,0.35
same,relative viability,[18]; first compound 0.4 µM,0.284
same,relative viability,[18]; first compound 4 µM,0.285
same,relative viability,[19]; first compound 0.04 µM,0.712
same,relative viability,[19]; first compound 0.1265 µM,0.505
same,relative viability,[19]; first compound 0.4 µM,0.598
same,relative viability,[19]; first compound 4 µM,0.425
same,relative viability,[20]; first compound 0.04 µM,0.695
same,relative viability,[20]; first compound 0.1265 µM,0.593
same,relative viability,[20]; first compound 0.4 µM,0.587
same,relative viability,[20]; first compound 4 µM,0.662
same,relative viability,[21]; first compound 0.04 µM,0.458
same,relative viability,[21]; first compound 0.1265 µM,0.451
same,relative viability,[21]; first compound 0.4 µM,0.444
same,relative viability,[21]; first compound 4 µM,0.437
same,relative viability,[22]; first compound 0.04 µM,0.566
same,relative viability,[22]; first compound 0.1265 µM,0.488
same,relative viability,[22]; first compound 0.4 µM,0.605
same,relative viability,[22]; first compound 4 µM,0.392
same,relative viability,[23]; first compound 0.04 µM,0.494
same,relative viability,[23]; first compound 0.1265 µM,0.469
same,relative viability,[23]; first compound 0.4 µM,0.475
same,relative viability,[23]; first compound 4 µM,0.488
same,relative viability,[24]; first compound 0.04 µM,0.439
same,relative viability,[24]; first compound 0.1265 µM,0.423
same,relative viability,[24]; first compound 0.4 µM,0.477
same,relative viability,[24]; first compound 4 µM,0.517
C[C@@H]1CN(CC(=O)Nc2ccc3c(c2)Cc2cccc(-c4cc(=O)cc(N5CCOCC5)o4)c2S3)C[C@H](C)O1 + O=C(c1cc(Cc2n[nH]c(=O)c3ccccc23)ccc1F)N1CCN(C(=O)C2CC2)CC1 [Olaparib] (partner 8 µM),relative viability,[1]; first compound 0.04 µM,0.636
same,relative viability,[1]; first compound 0.1265 µM,0.551
same,relative viability,[1]; first compound 0.4 µM,0.507
same,relative viability,[1]; first compound 4 µM,0.141
same,relative viability,[2]; first compound 0.04 µM,0.731
same,relative viability,[2]; first compound 0.1265 µM,0.713
same,relative viability,[2]; first compound 0.4 µM,0.967
same,relative viability,[2]; first compound 4 µM,0.282
same,relative viability,[3]; first compound 0.04 µM,0.441
same,relative viability,[3]; first compound 0.1265 µM,0.371
same,relative viability,[3]; first compound 0.4 µM,0.329
same,relative viability,[3]; first compound 4 µM,0.148
same,relative viability,[4]; first compound 0.04 µM,0.25
same,relative viability,[4]; first compound 0.1265 µM,0.248
same,relative viability,[4]; first compound 0.4 µM,0.265
same,relative viability,[4]; first compound 4 µM,0.182
same,relative viability,[5]; first compound 0.1265 µM,0.381
same,relative viability,[5]; first compound 0.4 µM,0.462
same,relative viability,[5]; first compound 4 µM,0.37
same,relative viability,[6]; first compound 0.04 µM,0.831
same,relative viability,[6]; first compound 0.1265 µM,0.77
same,relative viability,[6]; first compound 0.4 µM,0.835
same,relative viability,[6]; first compound 4 µM,0.64
same,relative viability,[7]; first compound 0.04 µM,0.554
same,relative viability,[7]; first compound 0.1265 µM,0.532
same,relative viability,[7]; first compound 0.4 µM,0.522
same,relative viability,[7]; first compound 4 µM,0.452
same,relative viability,[8]; first compound 0.04 µM,0.43
same,relative viability,[8]; first compound 0.1265 µM,0.308
same,relative viability,[8]; first compound 0.4 µM,0.31
same,relative viability,[8]; first compound 4 µM,0.202
same,relative viability,[9]; first compound 0.04 µM,0.601
same,relative viability,[9]; first compound 0.1265 µM,0.624
same,relative viability,[9]; first compound 0.4 µM,0.641
same,relative viability,[9]; first compound 4 µM,0.486
same,relative viability,[10]; first compound 0.04 µM,0.715
same,relative viability,[10]; first compound 0.1265 µM,0.407
same,relative viability,[10]; first compound 0.4 µM,0.315
same,relative viability,[10]; first compound 4 µM,0.102
same,relative viability,[11]; first compound 0.04 µM,0.436
same,relative viability,[11]; first compound 0.1265 µM,0.48
same,relative viability,[11]; first compound 0.4 µM,0.438
same,relative viability,[11]; first compound 4 µM,0.258
same,relative viability,[12]; first compound 0.04 µM,0.729
same,relative viability,[12]; first compound 0.1265 µM,1.22
same,relative viability,[12]; first compound 0.4 µM,0.804
same,relative viability,[12]; first compound 4 µM,1.08
same,relative viability,[13]; first compound 0.1265 µM,0.371
same,relative viability,[13]; first compound 0.4 µM,0.386
same,relative viability,[13]; first compound 4 µM,0.321
same,relative viability,[14]; first compound 0.04 µM,0.173
same,relative viability,[14]; first compound 0.1265 µM,0.167
same,relative viability,[14]; first compound 0.4 µM,0.178
same,relative viability,[14]; first compound 4 µM,0.139
same,relative viability,[15]; first compound 0.04 µM,0.722
same,relative viability,[15]; first compound 0.1265 µM,0.658
same,relative viability,[15]; first compound 0.4 µM,0.586
same,relative viability,[15]; first compound 4 µM,0.286
same,relative viability,[16]; first compound 0.04 µM,0.814
same,relative viability,[16]; first compound 0.1265 µM,0.77
same,relative viability,[16]; first compound 0.4 µM,0.784
same,relative viability,[16]; first compound 4 µM,0.622
same,relative viability,[17]; first compound 0.04 µM,0.969
same,relative viability,[17]; first compound 0.1265 µM,1.13
same,relative viability,[17]; first compound 0.4 µM,1.11
same,relative viability,[17]; first compound 4 µM,0.69
same,relative viability,[18]; first compound 0.04 µM,0.658
same,relative viability,[18]; first compound 0.1265 µM,0.734
same,relative viability,[18]; first compound 0.4 µM,0.731
same,relative viability,[18]; first compound 4 µM,0.669
same,relative viability,[19]; first compound 0.04 µM,0.81
same,relative viability,[19]; first compound 0.1265 µM,0.739
same,relative viability,[19]; first compound 0.4 µM,0.656
same,relative viability,[19]; first compound 4 µM,0.168
same,relative viability,[20]; first compound 0.04 µM,0.657
same,relative viability,[20]; first compound 0.1265 µM,0.653
same,relative viability,[20]; first compound 0.4 µM,0.689
same,relative viability,[20]; first compound 4 µM,0.433
same,relative viability,[21]; first compound 0.04 µM,0.649
same,relative viability,[21]; first compound 0.1265 µM,0.546
same,relative viability,[21]; first compound 0.4 µM,0.602
same,relative viability,[21]; first compound 4 µM,0.214
same,relative viability,[22]; first compound 0.04 µM,0.506
same,relative viability,[22]; first compound 0.1265 µM,0.444
same,relative viability,[22]; first compound 0.4 µM,0.502
same,relative viability,[22]; first compound 4 µM,0.112
same,relative viability,[23]; first compound 0.04 µM,1.17
same,relative viability,[23]; first compound 0.1265 µM,1.08
same,relative viability,[23]; first compound 0.4 µM,1.16
same,relative viability,[23]; first compound 4 µM,0.608
same,relative viability,[24]; first compound 0.04 µM,0.839
same,relative viability,[24]; first compound 0.1265 µM,0.816
same,relative viability,[24]; first compound 0.4 µM,0.793
same,relative viability,[24]; first compound 4 µM,0.783
